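Values below derive from 48-hour exposures of cells grown in 96-well plates, with endpoints linearly interpolated between the two concentrations bracketing the appropriate inhibition level. The concentration for full growth arrest is given as TGI.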 A value given as a limit tells only on which side of the number the result lay.

Test systems include 786-0 renal; EKVX NSCLC; HCC-2998 colon; HCT-15 colon; IGROV1 ovarian; KM12 colon; MDA-N; OVCAR-5 ovarian; OVCAR-8 ovarian; PC-3 prostate; RPMI-8226 leukemia; RXF 393 renal; SF-539 CNS; SK-MEL-2 melanoma; SK-MEL-28 melanoma; SN12C renal; U251 CNS; UACC-62 melanoma; M14 melanoma; T-47D breast.
Holding throughout (assay): NCI-60 cell line screen, 48 h

As to `Cc1c(C#N)c2ccccc2c2nc3ccccc3n12`, the TGI with 786-0 renal, in the test with EKVX NSCLC, in the test on HCC-2998 colon, in the test with HCT-15 colon, in the test with IGROV1 ovarian and in the test with KM12 colon was greater than 100 µM in each case. Moreover, the TGI with MDA-N, in the test on OVCAR-5 ovarian, in the test with OVCAR-8 ovarian, in the test on PC-3 prostate, in the test on RPMI-8226 leukemia and in the test with RXF 393 renal was greater than 100 µM each time. Besides, the TGI in the test with SF-539 CNS, with SK-MEL-2 melanoma, in the test on SK-MEL-28 melanoma, in the test on SN12C renal, in the test with U251 CNS and with UACC-62 melanoma was greater than 100 µM each time.
Take `COC(=O)C(C)(C)OCc1ccc(C2NC(=O)N(c3cccc(Cl)c3)C(=O)N2c2cccc(Cl)c2)cc1` (stereo not drawn): the TGI in the test on 786-0 renal was greater than 100 µM; in the test with EKVX NSCLC it was 78.8 µM; in the test on HCC-2998 colon, greater than 100 µM; in the test with HCT-15 colon it was greater than 100 µM; in the test with IGROV1 ovarian it was greater than 100 µM; in the test on KM12 colon, greater than 100 µM. In addition, the TGI in the test with M14 melanoma, in the test with MDA-N, in the test on OVCAR-5 ovarian, in the test with OVCAR-8 ovarian, in the test on PC-3 prostate and with RPMI-8226 leukemia was greater than 100 µM throughout. The TGI in the test on RXF 393 renal, in the test on SF-539 CNS, in the test on SK-MEL-2 melanoma, in the test on SK-MEL-28 melanoma, with SN12C renal and in the test on U251 CNS was greater than 100 µM throughout. The TGI in the test with UACC-62 melanoma was greater than 100 µM.
On to `COCO[C@@H]1C[C@H]2C(=O)N(COC)c3ccccc3C(=O)N2C1`, for which the TGI in the test on 786-0 renal, with EKVX NSCLC, with HCT-15 colon, in the test on IGROV1 ovarian, with KM12 colon and in the test with M14 melanoma was greater than 100 µM each time. Also, the TGI in the test with MDA-N, in the test on OVCAR-5 ovarian, in the test on OVCAR-8 ovarian, in the test on PC-3 prostate, in the test with RXF 393 renal and in the test with SF-539 CNS was greater than 100 µM each time. Also, the TGI in the test on SK-MEL-2 melanoma, in the test with SK-MEL-28 melanoma, in the test on SN12C renal, in the test on T-47D breast, with U251 CNS and in the test on UACC-62 melanoma was greater than 100 µM each time.
On to `C1=Nc2ccc(cc2)N=Cc2ccc(cc2)OCc2cccc(n2)COc2ccc1cc2`, for which the TGI with 786-0 renal, in the test on EKVX NSCLC, with HCT-15 colon, in the test on IGROV1 ovarian, in the test with KM12 colon and in the test on M14 melanoma was greater than 100 µM each time. In addition, the TGI with MDA-N, in the test on OVCAR-5 ovarian, in the test on OVCAR-8 ovarian, in the test with PC-3 prostate, in the test with RPMI-8226 leukemia and in the test on RXF 393 renal was greater than 100 µM in each case. For the same compound, the TGI with SF-539 CNS, with SK-MEL-2 melanoma, in the test with SK-MEL-28 melanoma, in the test with SN12C renal, with T-47D breast and in the test on U251 CNS was greater than 100 µM throughout. This compound returned a TGI in the test with UACC-62 melanoma greater than 100 µM.
With `Cc1ncc([N+](=O)[O-])n1CCN(C)C(=O)CCCn1ccnc1[N+](=O)[O-]`, the TGI in the test on 786-0 renal, in the test on EKVX NSCLC, in the test on HCT-15 colon, with IGROV1 ovarian, with KM12 colon and with M14 melanoma was greater than 100 µM each time. Moreover, the TGI in the test with MDA-N, in the test on OVCAR-5 ovarian, in the test with OVCAR-8 ovarian, in the test with PC-3 prostate, in the test on RPMI-8226 leukemia and in the test with RXF 393 renal was greater than 100 µM in each case. Moreover, the TGI in the test with SF-539 CNS, in the test with SK-MEL-2 melanoma, in the test on SK-MEL-28 melanoma, with SN12C renal, in the test with T-47D breast and in the test with U251 CNS was greater than 100 µM each time. Moreover, the TGI in the test with UACC-62 melanoma is greater than 100 µM.
On to `O=C1Cc2c([nH]c3c(Cl)cccc23)-c2ccccc2N1`, for which the TGI in the test on 786-0 renal, in the test on HCT-15 colon, with IGROV1 ovarian, in the test on KM12 colon, in the test on M14 melanoma and in the test on MDA-N was greater than 100 µM each time. Moreover, the TGI with OVCAR-5 ovarian, with OVCAR-8 ovarian, with PC-3 prostate, with RPMI-8226 leukemia, in the test with SF-539 CNS and in the test on SK-MEL-28 melanoma was greater than 100 µM each time. In addition, the TGI in the test with SN12C renal, in the test with T-47D breast, in the test with U251 CNS and in the test on UACC-62 melanoma was greater than 100 µM each time.
Consider `COc1cc2c(c(O)c1OC)C(O)C1CCC(=O)N1C2c1cccc2ccccc12` (stereo not drawn), for which the TGI in the test on 786-0 renal, in the test on EKVX NSCLC, in the test with HCT-15 colon, in the test with IGROV1 ovarian, in the test with KM12 colon and in the test on M14 melanoma was greater than 100 µM in each case. Moreover, the TGI in the test with MDA-N, with OVCAR-5 ovarian, in the test with OVCAR-8 ovarian, in the test with PC-3 prostate, with RPMI-8226 leukemia and with RXF 393 renal was greater than 100 µM each time. The TGI in the test on SF-539 CNS, with SK-MEL-2 melanoma, with SK-MEL-28 melanoma, in the test on SN12C renal, with T-47D breast and with U251 CNS was greater than 100 µM each time. Further, the TGI in the test with UACC-62 melanoma is greater than 100 µM.
Consider `COc1ccc(/C=C/c2sc3ccccc3[n+]2CCCCI)cc1OC`, for which the TGI with 786-0 renal, with EKVX NSCLC, in the test on HCC-2998 colon, in the test with HCT-15 colon, in the test on IGROV1 ovarian and in the test on KM12 colon was greater than 10 µM each time. Moreover, the TGI with M14 melanoma, in the test on MDA-N, in the test with OVCAR-5 ovarian, in the test with OVCAR-8 ovarian, in the test on PC-3 prostate and in the test on RPMI-8226 leukemia was greater than 10 µM in each case. Also, the TGI was greater than 10 µM in the test on RXF 393 renal; greater than 10 µM in the test on SF-539 CNS; 9.47 µM with SK-MEL-2 melanoma; greater than 10 µM in the test on SK-MEL-28 melanoma; greater than 10 µM in the test on SN12C renal; greater than 10 µM with U251 CNS. The same compound yielded a TGI in the test with UACC-62 melanoma greater than 10 µM.
Turning to `O=C(Nc1nc(C23CC4CC(CC(C4)C2)C3)cs1)c1c(O)c2ccccc2[nH]c1=O`, the TGI with 786-0 renal, in the test on EKVX NSCLC, with HCC-2998 colon, in the test with HCT-15 colon, with IGROV1 ovarian and in the test with KM12 colon was greater than 100 µM in each case. Moreover, the TGI in the test on MDA-N, in the test on OVCAR-5 ovarian, with OVCAR-8 ovarian, with PC-3 prostate, in the test with RPMI-8226 leukemia and in the test with RXF 393 renal was greater than 100 µM in each case. Besides, the TGI in the test on SF-539 CNS, in the test on SK-MEL-28 melanoma, in the test on SN12C renal and with U251 CNS was greater than 100 µM in each case.
On to `CN(C)Cc1cc(N=Nc2cccc(Cl)c2)ccc1O`, for which the TGI with 786-0 renal is 27.4 µM; with HCC-2998 colon it was 27.9 µM; in the test on HCT-15 colon, 20.5 µM; in the test with IGROV1 ovarian, 27.1 µM; in the test on KM12 colon, 22 µM; in the test on M14 melanoma it was 25.5 µM. The TGI in the test with MDA-N came out at 23.9 µM; with OVCAR-5 ovarian, 30.1 µM; in the test on OVCAR-8 ovarian, 28.5 µM; in the test with PC-3 prostate it was 38.1 µM; with RPMI-8226 leukemia it was 55.8 µM; in the test with RXF 393 renal it was 20.8 µM. The TGI in the test with SF-539 CNS turned out to be 33 µM; with SK-MEL-28 melanoma it was 26.9 µM; with SN12C renal, 95.3 µM; with T-47D breast, 34 µM; in the test on U251 CNS, 33.1 µM; in the test on UACC-62 melanoma, 13.1 µM.
As to `Cn1ccc(C(=O)N2CCSC2=S)c(OCc2ccccc2)c1=O`, the TGI in the test with 786-0 renal, with HCC-2998 colon, in the test with HCT-15 colon, in the test with KM12 colon, with MDA-N and with OVCAR-8 ovarian was greater than 100 µM in each case. Moreover, the TGI in the test on PC-3 prostate, in the test with RPMI-8226 leukemia, in the test on SK-MEL-2 melanoma, in the test with SK-MEL-28 melanoma, in the test on SN12C renal and in the test on T-47D breast was greater than 100 µM each time. Further, the TGI in the test with U251 CNS and in the test on UACC-62 melanoma was greater than 100 µM throughout.
Take `COc1cc(/C=C2/SC(c3ccccc3)N(c3cccc(Cl)c3)C2=O)cc(OC)c1OC` (stereo not drawn): the TGI with 786-0 renal is 36.4 µM; in the test with EKVX NSCLC, greater than 100 µM; in the test with HCC-2998 colon, greater than 100 µM; with HCT-15 colon it was greater than 100 µM; with KM12 colon, greater than 100 µM; with M14 melanoma, greater than 100 µM. Further, the TGI in the test on MDA-N was 43.2 µM; in the test on OVCAR-5 ovarian, greater than 100 µM; in the test on OVCAR-8 ovarian, 59.6 µM; with RPMI-8226 leukemia it was 58.3 µM; in the test with RXF 393 renal, 53.1 µM; in the test on SF-539 CNS, 43 µM. For the same compound, the TGI in the test with SK-MEL-2 melanoma is greater than 100 µM; in the test with SK-MEL-28 melanoma, 90.1 µM; in the test with SN12C renal it was 37.2 µM; in the test with T-47D breast, greater than 100 µM; in the test on U251 CNS, 86.8 µM; with UACC-62 melanoma, greater than 100 µM.

For the origin of these results see PubChem BioAssay (NCI).
